From patent publication US20110151006A1, “STIMULI-RESPONSIVE HYDROGEL” (priority 2008, published 2011)

Tests used:
[1] = biological target: T1, hexahistidine-tagged GyrB (Escherichia coli, UniProt P0AES6); test: Antibiotic-dependent hydrogel formation (GyrB released into buffer); design: species or system E. coli; conditions: GyrB:coumermycin=2:1 or ten-fold molar excess of novobiocin; mixed with poly(AAm-co-Ni2+-NTA-AAm); 12 hours in PBS
T1 construct: GyrB migrates predominantly at its predicted size of 27 kDa; made in house; host or cells: E. coli BL21 STAR (DE3)
Excerpt: The protein is subsequently mixed with poly(AAm-co-Ni^2+-NTA-AAm) at a ratio of one GyrB per 11 Ni^2+ ions chelated in the polymer backbone.

GyrB (gyrase subunit B) [2] = biological target: T2, GyrB (gyrase subunit B) (Escherichia coli, UniProt P0AES6); test: Ultrafiltration study of coumermycin-induced GyrB dimerization; assay type: biochemical, E. coli; conditions: 50 kDa molecular weight cut-off filter; GyrB:coumermycin=2:1; GyrB without coumermycin gave 54%
T2 construct: GyrB migrates predominantly at its predicted size of 27 kDa; made in house; host or cells: E. coli BL21 STAR (DE3)

GyrB (gyrase subunit B) [3] = biological target: T2, GyrB (gyrase subunit B); test: Antibiotic-triggered GyrB dimerization, DMS crosslinking and SDS-PAGE; assay type: biochemical, E. coli; conditions: GyrB:coumermycin=2:1, mol/mol; DMS crosslinking; denaturing PAGE; dimer at 54 kDa
Description: The gene for E. coli gyrase subunit B (gyrB) is tagged with the coding sequence for six histidine residues. The coding region is placed under the control of the phage T7-derived promoter and expressed in E. coli as a soluble cytoplasmatic protein. GyrB is purified via the hexahistidine tag using Ni^2+-based affinity chromatography. Coumermycin-induced dimerization of genetically engineered GyrB is evaluated by incubating the protein in the presence or absence of coumermycin (GyrB:coumermycin=2:1, mol/mol) with subsequent addition of the amine-specific bifunctional crosslinking agent dimethyl-suberimidate (DMS) and analysis of the complexes on denaturing polyacrylamide gel electrophoresis. […]
Concentration of GyrB is analyzed by the Bradford method (Biorad, Muünchen, Germany, cat. no. 500-0006) using BSA as standard. […] Antibiotic-triggered dimerization of GyrB is analyzed by incubating GyrB in the presence coumermycin A1 (GyrB:coumermycin=2:1, mol/mol; Sigma, St. Louis, Mo., cat. no. C9270) for 30 min at room temperature following covalent crosslinking of the dimers by addition of dimethyl suberimidate×2HCl (DMS, SigmaAldrich, St. Louis, Mo., cat. no. 179523) at a 10-fold molar excess with respect to GyrB for 60 min at room temperature. The dimers are analyzed on SDS-PAGE. […]

coumermycin A1
GyrB-polymer complexes released into the buffer / hydrogel formation [1]: significantly reduced
GyrB protein in filtrate (GyrB (gyrase subunit B) [2]): 2.8%
GyrB dimer formation (GyrB (gyrase subunit B) [3]): substantial dimer formation
